Laboratory results: ChEMBL document CHEMBL5053509, “Development of a Selective Dual Discoidin Domain Receptor (DDR)/p38 Kinase Chemical Probe” (J Med Chem, 2021)

Assay: Metabolic stability in human liver microsomes assessed as parent compound remaining after 240 mins incubation by LC-MS/MS analysis
Assay type: ADME, Microsome
Details: read-out: Stability

Row | Structure (SMILES) | remaining at 4 h [%]
1 | CS(=O)(=O)N1CCC[C@H](NC(=O)[C@H](CCC2CCCCC2)NC(=O)c2ccc(CNC(=O)c3cnn(-c4ccccc4)c3N)cc2)C1 | 44
2 | CS(=O)(=O)N1CCCC(NC(=O)[C@H](CCC2CCCCC2)NC(=O)c2ccc(CNC(=O)c3cnc4ccccn34)cc2)C1 (mixture of isomers) [SR-302] | 44
